{"source": "patent US7968557B2", "about": "“Substituted pyrrolo[2,3-2]pyrimidines as protein kinase inhibitors” (Novartis AG, priority 2004, dated 2011)", "assay_type_in_all_cases": "cell-based", "key": {"[1]": {"target": "T1, FLT3-ITD (Homo sapiens, UniProt P36888, DUP592-605)", "T1 construct": "expressed in transfected cells; host or cells: murine Ba/F3 cells, retroviral infection", "T1 sequence (P36888 with tags, fused parts or gaps DUP592-605)": "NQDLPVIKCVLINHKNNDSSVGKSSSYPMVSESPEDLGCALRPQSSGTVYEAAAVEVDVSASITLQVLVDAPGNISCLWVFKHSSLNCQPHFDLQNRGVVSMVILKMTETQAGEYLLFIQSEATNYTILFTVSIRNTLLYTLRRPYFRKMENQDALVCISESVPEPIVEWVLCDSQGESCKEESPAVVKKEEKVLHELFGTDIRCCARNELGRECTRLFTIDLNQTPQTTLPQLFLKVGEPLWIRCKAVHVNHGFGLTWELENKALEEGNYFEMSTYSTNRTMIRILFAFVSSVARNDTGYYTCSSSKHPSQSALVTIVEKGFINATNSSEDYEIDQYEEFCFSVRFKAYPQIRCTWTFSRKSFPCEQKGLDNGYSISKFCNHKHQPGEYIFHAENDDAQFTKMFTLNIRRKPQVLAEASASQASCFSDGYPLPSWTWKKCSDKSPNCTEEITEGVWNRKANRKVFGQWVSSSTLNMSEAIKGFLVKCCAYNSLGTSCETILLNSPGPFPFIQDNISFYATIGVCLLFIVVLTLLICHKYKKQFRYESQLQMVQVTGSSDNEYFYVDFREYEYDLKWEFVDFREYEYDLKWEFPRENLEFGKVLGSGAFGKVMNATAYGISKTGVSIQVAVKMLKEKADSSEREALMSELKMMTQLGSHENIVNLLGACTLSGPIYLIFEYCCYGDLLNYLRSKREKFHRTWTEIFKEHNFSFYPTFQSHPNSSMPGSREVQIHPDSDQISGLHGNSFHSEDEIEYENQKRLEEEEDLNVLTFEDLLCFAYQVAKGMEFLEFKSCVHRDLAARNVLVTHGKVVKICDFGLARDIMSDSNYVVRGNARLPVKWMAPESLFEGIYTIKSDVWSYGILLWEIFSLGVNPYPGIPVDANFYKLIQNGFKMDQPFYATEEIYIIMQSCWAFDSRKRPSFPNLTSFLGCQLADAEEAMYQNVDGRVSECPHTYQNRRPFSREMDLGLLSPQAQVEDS", "assay": "Flt-3 inhibition, proliferation of Ba/F3-Flt3-ITD cells", "source_text": "Compounds that have differential activity (more than or equal to 10 fold difference in sensitivity between Flt3+cell lines and Flt3− cell lines are selected for further study.\nThe cell lines used for the initial screening are sub-lines of Ba/F3 cells that are engineered to over-express mutant or wild-type (non-mutated) Flt3 following infection with a retrovirus expressing appropriate Flt3 cDNAs. The parent cell line, Ba/F3 is dependent on interleukin-3 for proliferation, and when deprived of IL-3, the cells rapidly cease proliferation and die. The retrovirus expresses Flt3 from the retrovirual LTR and the neo gene from an IRES site. Ba/F3 cells are selected in G418 and analyzed for expression of Flt3 by fluorescence activated cell sorting (FACS). Cell lines with two different Flt3 mutations are used. One mutant expresses a Flt-3 that has a 14 amino acid duplication in the juxtamembrane domain encoded by exon 11, the specific duplication being . . . VDFREYEYDLKWEF . . . […]\nYo-Pro-1 iodide (Molecular Probes) is added to the cells at a final concentration of 2.5 μM in NaCl/Na-citrate buffer. The cells are incubated with Yo-Pro for 10 minutes at room temperature and then read on a fluorimeter for determination of cytotoxicity. Next, the cells are lysed with NP40/EDTA/EGTA buffer, incubated at room temperature for 90 minutes and read for the determination of proliferation. […]"}, "[2]": {"target": "FGFR3 (Homo sapiens, UniProt P22607)", "sequence (P22607 23-806, species assumed)": "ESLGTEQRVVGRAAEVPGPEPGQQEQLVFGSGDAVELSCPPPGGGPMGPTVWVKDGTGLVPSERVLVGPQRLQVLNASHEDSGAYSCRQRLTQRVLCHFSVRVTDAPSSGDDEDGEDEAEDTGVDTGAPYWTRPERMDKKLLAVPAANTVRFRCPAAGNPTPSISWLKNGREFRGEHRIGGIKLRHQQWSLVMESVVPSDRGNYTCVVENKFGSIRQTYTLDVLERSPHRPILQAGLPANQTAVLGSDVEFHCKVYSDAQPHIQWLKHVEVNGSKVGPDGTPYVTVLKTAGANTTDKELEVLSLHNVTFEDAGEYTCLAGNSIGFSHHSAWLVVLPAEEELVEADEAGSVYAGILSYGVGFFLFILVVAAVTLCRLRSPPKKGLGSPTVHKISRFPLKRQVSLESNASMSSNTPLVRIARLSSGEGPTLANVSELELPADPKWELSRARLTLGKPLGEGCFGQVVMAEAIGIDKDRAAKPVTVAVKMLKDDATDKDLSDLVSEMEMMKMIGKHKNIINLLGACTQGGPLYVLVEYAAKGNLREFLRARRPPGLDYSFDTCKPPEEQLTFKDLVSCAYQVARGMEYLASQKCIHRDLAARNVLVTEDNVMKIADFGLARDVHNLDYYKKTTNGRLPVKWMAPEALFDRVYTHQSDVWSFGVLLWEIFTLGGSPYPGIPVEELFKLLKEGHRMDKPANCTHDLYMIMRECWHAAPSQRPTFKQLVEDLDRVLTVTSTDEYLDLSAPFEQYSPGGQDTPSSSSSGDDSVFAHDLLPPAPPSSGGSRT", "assay": "IC50 for FGFR3 (method not described)"}, "[3]": {"target": "JAK2 (Homo sapiens, UniProt O60674)", "sequence (O60674 whole entry, species assumed)": "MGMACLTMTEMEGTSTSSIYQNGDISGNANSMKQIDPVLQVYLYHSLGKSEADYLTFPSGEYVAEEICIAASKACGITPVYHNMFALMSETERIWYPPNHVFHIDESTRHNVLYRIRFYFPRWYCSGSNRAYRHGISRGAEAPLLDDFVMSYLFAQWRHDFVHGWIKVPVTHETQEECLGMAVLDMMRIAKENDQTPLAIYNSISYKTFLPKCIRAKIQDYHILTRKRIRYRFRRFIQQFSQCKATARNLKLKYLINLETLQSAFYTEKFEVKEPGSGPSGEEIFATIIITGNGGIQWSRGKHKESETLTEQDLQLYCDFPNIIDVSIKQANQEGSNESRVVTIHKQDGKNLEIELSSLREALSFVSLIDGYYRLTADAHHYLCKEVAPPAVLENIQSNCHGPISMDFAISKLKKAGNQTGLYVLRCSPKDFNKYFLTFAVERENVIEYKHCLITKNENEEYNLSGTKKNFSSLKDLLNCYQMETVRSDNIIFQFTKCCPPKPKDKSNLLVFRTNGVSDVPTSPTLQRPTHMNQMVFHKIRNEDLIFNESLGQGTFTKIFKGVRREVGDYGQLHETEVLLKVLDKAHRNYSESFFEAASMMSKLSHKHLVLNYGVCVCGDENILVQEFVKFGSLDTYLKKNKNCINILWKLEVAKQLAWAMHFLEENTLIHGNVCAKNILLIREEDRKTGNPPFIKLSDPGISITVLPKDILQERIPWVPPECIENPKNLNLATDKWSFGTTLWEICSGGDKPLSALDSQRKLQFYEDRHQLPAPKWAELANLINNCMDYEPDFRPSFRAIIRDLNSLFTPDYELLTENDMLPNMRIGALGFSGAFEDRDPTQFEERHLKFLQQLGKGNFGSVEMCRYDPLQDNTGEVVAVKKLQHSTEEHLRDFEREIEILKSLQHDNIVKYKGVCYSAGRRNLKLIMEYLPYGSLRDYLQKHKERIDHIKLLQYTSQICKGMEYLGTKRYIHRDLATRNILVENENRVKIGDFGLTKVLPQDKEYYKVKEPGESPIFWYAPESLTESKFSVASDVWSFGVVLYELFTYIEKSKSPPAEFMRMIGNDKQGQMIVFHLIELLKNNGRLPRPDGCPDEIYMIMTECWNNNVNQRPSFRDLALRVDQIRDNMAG", "assay": "IC50 for JAK2 (method not described)"}, "[4]": {"target": "T2, PDGFR-beta (Homo sapiens, UniProt P09619)", "T2 construct": "expressed in transfected cells; host or cells: BaF3", "T2 sequence (P09619 33-1106, species assumed)": "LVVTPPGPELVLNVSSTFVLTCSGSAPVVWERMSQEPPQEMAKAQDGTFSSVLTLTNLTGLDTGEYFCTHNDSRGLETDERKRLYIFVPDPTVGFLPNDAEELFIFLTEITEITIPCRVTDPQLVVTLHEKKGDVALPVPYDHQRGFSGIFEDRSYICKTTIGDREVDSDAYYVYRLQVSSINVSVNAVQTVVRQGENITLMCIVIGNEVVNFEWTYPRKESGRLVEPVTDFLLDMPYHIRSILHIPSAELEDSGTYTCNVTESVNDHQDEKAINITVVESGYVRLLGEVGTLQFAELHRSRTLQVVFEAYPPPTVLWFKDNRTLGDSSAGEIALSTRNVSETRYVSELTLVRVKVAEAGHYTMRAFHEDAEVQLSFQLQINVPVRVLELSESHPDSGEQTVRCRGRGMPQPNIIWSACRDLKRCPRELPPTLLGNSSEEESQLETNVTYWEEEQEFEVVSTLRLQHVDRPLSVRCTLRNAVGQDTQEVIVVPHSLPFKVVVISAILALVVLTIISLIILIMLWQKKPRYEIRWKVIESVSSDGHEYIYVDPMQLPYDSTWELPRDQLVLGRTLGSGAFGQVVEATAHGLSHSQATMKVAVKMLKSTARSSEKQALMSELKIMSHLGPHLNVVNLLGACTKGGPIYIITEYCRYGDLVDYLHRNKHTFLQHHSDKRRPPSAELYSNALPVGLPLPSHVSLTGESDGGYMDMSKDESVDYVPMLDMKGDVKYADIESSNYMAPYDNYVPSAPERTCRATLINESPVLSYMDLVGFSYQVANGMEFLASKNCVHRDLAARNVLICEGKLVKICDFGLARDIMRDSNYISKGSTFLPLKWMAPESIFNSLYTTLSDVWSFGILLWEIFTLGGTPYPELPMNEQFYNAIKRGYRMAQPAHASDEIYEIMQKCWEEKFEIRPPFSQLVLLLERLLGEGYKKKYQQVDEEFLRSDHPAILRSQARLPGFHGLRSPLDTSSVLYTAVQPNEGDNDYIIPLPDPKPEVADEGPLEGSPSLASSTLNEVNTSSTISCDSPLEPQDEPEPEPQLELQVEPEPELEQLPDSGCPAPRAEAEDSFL", "assay": "IC50 for BaF3/PDGFR-beta (method not described)"}, "[5]": {"target": "Tel-TRKC (Homo sapiens, UniProt Q16288)", "sequence (Q16288 530-839)": "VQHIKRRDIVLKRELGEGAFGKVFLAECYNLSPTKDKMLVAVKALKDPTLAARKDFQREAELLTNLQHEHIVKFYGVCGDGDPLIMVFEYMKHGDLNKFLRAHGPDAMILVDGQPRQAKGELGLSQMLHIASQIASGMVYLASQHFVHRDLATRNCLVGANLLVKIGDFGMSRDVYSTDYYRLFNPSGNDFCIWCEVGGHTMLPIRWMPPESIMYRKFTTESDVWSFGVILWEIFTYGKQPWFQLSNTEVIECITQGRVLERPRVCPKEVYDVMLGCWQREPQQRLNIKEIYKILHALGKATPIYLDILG", "sequence (P41212 1-336 partner)": "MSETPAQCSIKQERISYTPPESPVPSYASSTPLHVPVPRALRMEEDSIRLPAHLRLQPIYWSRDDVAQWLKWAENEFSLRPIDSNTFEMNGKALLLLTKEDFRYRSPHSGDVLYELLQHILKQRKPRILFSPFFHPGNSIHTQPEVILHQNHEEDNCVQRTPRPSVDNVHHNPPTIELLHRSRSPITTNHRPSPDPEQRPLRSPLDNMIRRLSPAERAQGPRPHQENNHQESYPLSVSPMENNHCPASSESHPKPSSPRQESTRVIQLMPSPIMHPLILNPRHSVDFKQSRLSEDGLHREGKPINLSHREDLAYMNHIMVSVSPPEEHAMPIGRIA", "assay": "IC50 for Tel-TRKC (method not described)"}, "[6]": {"target": "T3, BCR-Abl (Homo sapiens, UniProt P00519)", "T3 construct": "expressed in transfected cells; host or cells: murine 32D hemopoietic progenitor cells (32D-p210); the other entry of the earlier key: BCR (P11274, Breakpoint cluster region protein)", "T3 sequence (P00519 229-512 limits assumed)": "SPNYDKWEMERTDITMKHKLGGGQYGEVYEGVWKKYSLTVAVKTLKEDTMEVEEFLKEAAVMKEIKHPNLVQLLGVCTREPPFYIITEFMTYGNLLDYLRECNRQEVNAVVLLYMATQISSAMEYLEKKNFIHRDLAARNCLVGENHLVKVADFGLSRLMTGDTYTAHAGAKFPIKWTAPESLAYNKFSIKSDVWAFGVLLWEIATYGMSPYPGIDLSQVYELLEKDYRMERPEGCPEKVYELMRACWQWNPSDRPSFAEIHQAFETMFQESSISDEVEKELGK", "assay": "Inhibition of cellular BCR-Abl dependent proliferation (32D-p210 cells)", "method": "Inhibition of Cellular BCR-Abl Dependent Proliferation (High Throughput Method)\nThe murine cell line used is the 32D hemopoietic progenitor cell line transformed with BCR-Abl cDNA (32D-p210). These cells are maintained in RPMI/10% fetal calf serum (RPMI/FCS) supplemented with penicillin 50 μg/mL, streptomycin 50 μg/mL and L-glutamine […]. Untransformed 32D cells are similarly maintained with the addition of 15% WEHI conditioned medium as a source of IL3.\n50 μl of a 32D or 32D-p210 cells suspension are plated in Greiner 384 well microplates (black) at a density of 5000 cells per well. 50 nl of test compound (1 mM in DMSO stock solution) is added to each well (ST1571 is included as a positive control). The cells are incubated for 72 hours at 37° C., 5% CO2. 10 μl of a 60% Alamar Blue solution (Tek diagnostics) is added to each well and the cells are incubated for an additional 24 hours. The fluorescence intensity (Excitation at 530 nm, Emission at 580 nm) is quantified using the Acquest™ system (Molecular Devices).\nInhibition of Cellular BCR-Abl Dependent Proliferation\n32D-p210 cells are plated into 96 well TC plates at a density of 15,000 cells per well. 50 μL of two fold serial dilutions of the test compound (Cmax is 40 μM) are added to each well (ST1571 is included as a positive control). […]"}}, "note": "Where two headings read alike, the source gives them in different places.", "data": [{"smiles": "COc1cc(Nc2ncc3ccn(-c4cccc(CCC#N)c4)c3n2)cc(OC)c1OC", "note": "[example 85, 3-{3-[2-(3,4,5-Trimethoxy-phenylamino)-pyrrolo[2,3-d]pyrimidin-7-yl]-phenyl}-propionitrile]", "values": [{"measurement": "IC50", "setting": "[1]", "result": 16, "unit": "nM"}]}, {"smiles": "COc1cc(Nc2ncc3ccn(-c4cccc(CC#N)c4)c3n2)cc(OC)c1OC", "note": "[example 104, {3-[2-(3,4,5-Trimethoxy-phenylamino)-pyrrolo[2,3-d]pyrimidin-7-yl]-phenyl}-acetonitrile]", "values": [{"measurement": "IC50", "setting": "[1]", "result": 29, "unit": "nM"}, {"measurement": "IC50", "setting": "[2]", "result": 282, "unit": "nM"}, {"measurement": "IC50", "setting": "[3]", "result": 342, "unit": "nM"}, {"measurement": "IC50", "setting": "[4]; read-out: IC50 for PDGFR-beta", "result": 33, "unit": "nM"}, {"measurement": "IC50", "setting": "[5]", "result": 479, "unit": "nM"}]}, {"smiles": "COc1cc(Nc2ncc3ccn(-c4cccc(Cc5nnnn5C)c4)c3n2)cc(OC)c1OC", "note": "[example 120, {7-[3-(1-Methyl-1H-tetrazol-5-ylmethyl)-phenyl]-7H-pyrrolo[2,3-d]pyrimidin-2-yl}-(3,4,5-trimethoxy-phenyl)-amine]", "values": [{"measurement": "IC50", "setting": "[4]; BaF3/PDGFR-beta, read-out: IC50 for BaF3/PDGFR-beta", "result": 29, "unit": "nM"}]}, {"smiles": "COc1cc(Nc2ncc3c(n2)N(c2ccccn2)CC3)cc(OC)c1OC", "note": "[example 61, (7-Pyridin-2-yl-6,7-dihydro-5H-pyrrolo[2,3-d]pyrimidin-2-yl)-(3,4,5-trimethoxy-phenyl)-amine]", "values": [{"measurement": "IC50", "setting": "[2]", "result": 284, "unit": "nM"}]}, {"smiles": "COc1ccc(Nc2ncc3ccn(-c4ccnc(Cl)c4)c3n2)c(C)c1", "note": "[example 47, [7-(2-Chloro-pyridin-4-yl)-7H-pyrrolo[2,3-d]pyrimidin-2-yl]-(4-methoxy-2-methyl-phenyl)-amine]", "values": [{"measurement": "IC50", "setting": "[6]", "result": 408, "unit": "nM"}]}]}
